One may read the IC50 as the concentration needed to halve the response being measured. Read a high IC50 as lower potency.

Molecules are shown by their SMILES. A value given as a limit tells only on which side of the number the result lay.

This assay deals with T1, PD-1/PD-L1 interaction (Homo sapiens, UniProt Q9NZQ7).
T1 construct: purchased CisBio 63ADK000CPAPEG
Briefly: PD-1/PD-L1 HTRF binding assay (CisBio kit). The conditions noted are these: HTRF PD1/PD-L1 inhibition assay. How it is done: PD-L1 Enzyme Assay: Homogenous Time-Resolved Fluorescence (HTRF) Binding Assay
All binding studies were performed using PD-1/PD-L1 Binding Assay Kit from CisBio (Catalog #63ADK000CPAPEG), according to the manufacturer's protocol. The interaction between Tag1-PD-1 and […] was detected by anti-Tag1-Eu^3+ (HTRF donor) and anti-Tag2-XL665 (HTRF acceptor). When the donor and acceptor antibodies were brought to close proximity due to PD-1 and PD-L1 binding, excitation of the donor antibody triggered fluorescent resonance energy transfer (FRET) towards the acceptor antibody, which in turn emitted specifically at 665 nm. This specific signal is positively proportional to PD-1/PD-L1 interaction. The compounds blocking PD-1/PD-L1 interaction will cause a reduction in HTRF signal. The necessary reagents were mixed in the following order: 2 μL compounds (or diluents buffer), 4 μL PD-L1 protein, 4 μL PD-1 protein. After an incubation of 15 minutes, 5 μL of anti-Tag1-Eu^3+ and 5 μL of anti-Tag2-XL665 were added. The plate was sealed and incubated at room temperature for 1 h. The fluorescence emission was read at two different wavelengths (665 nm and 620 nm) on a BMG PheraStar® multi-plate reader.
Results were calculated from the 665 nm and 620 nm fluorescence signal and expressed in HTRF ratio=(665 nm/620 nm)×10^4.
Compounds having IC50<100 nM are designated as “A”; 100-500 nM are designated as “B”; and >500 nM are designated as “C” respectively.
For orientation: In TR-FRET formats the signal depends on donor and acceptor labels being close together.

T1 sequence (Q9NZQ7 19-238 limits assumed): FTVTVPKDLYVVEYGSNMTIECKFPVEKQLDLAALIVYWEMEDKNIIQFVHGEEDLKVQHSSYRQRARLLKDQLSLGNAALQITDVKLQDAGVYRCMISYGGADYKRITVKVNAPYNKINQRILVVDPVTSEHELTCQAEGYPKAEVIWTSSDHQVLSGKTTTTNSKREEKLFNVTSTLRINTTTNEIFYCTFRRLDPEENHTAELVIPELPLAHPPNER

`Cc1c(COc2cc(OCc3cncc(C#N)c3)c(C(=O)NC3CCN(C)CC3)c3c2CCC3)cccc1-c1ccccc1` [Example 49, 5-((5-cyanopyridin-3-yl)methoxy)-7-((2-methyl-[1,1′-biphenyl]-3-yl)methoxy)-N-(1-methylpiperidin-4-yl)-2,3-dihydro-1H-indene-4-carboxamide] returned an IC50 of less than 100 nM.
For `Cc1c(COc2cc(OCc3cncc(C#N)c3)c(CN3CCC[C@H](CO)C3)c3c2CCC3)cccc1-c1ccccc1` [Example 16, (S)-5-(((4-((3-(hydroxymethyl)piperidin-1-yl)methyl)-7-((2-methyl-[1,1′-biphenyl]-3-yl)methoxy)-2,3-dihydro-1H-inden-5-yl)oxy)methyl)nicotinonitrile] the value was less than 100 nM; for `Cc1c(COc2cc(OCc3cncc(C#N)c3)c(CN3CCC3CO)c3c2CCC3)cccc1-c1ccc(N2CCOCC2)nc1` (stereo not shown) [Example 61, 5-(((4-((2-(hydroxymethyl)azetidin-1-yl)methyl)-7-((2-methyl-3-(6-morpholinopyridin-3-yl)benzyl)oxy)-2,3-dihydro-1H-inden-5-yl)oxy)methyl)nicotinonitrile], greater than 500 nM.
Consider `Cc1c(COc2cc(OCc3cncc(C#N)c3)c(CN3CCCC3CN)c3c2CCC3)cccc1-c1ccccc1` (stereo not shown) [Example 53, 5-(((4-((2-(aminomethyl)pyrrolidin-1-yl)methyl)-7-((2-methyl-[1,1′-biphenyl]-3-yl)methoxy)-2,3-dihydro-1H-inden-5-yl)oxy)methyl)nicotinonitrile], for which the IC50 was less than 100 nM.
`Cc1c(COc2cc(OCc3cncc(C#N)c3)c(C(=O)N3CCC[C@H]3CO)c3c2CCC3)cccc1-c1ccccc1` [Example 50, (S)-5-(((4-(2-(hydroxymethyl)pyrrolidine-1-carbonyl)-7-((2-methyl-[1,1′-biphenyl]-3-yl)methoxy)-2,3-dihydro-1H-inden-5-yl)oxy)methyl)nicotinonitrile] showed an IC50 of 100 to 500 nM.
Turning to `Cc1c(COc2cc(OCc3cncc(C#N)c3)c(CN3CC[C@H]3CO)c3c2CCC3)cccc1-c1cnc2[nH]ccc2c1` [Example 72, (S)-5-(((4-((2-(hydroxymethyl)azetidin-1-yl)methyl)-7-((2-methyl-3-(1H-pyrrolo[2,3-b]pyridin-5-yl)benzyl)oxy)-2,3-dihydro-1H-inden-5-yl)oxy)methyl)nicotinonitrile], the IC50 fell in the range of 100 to 500 nM.
As for `Cc1c(COc2cc(OCc3cncc(C#N)c3)c(CN3CC(F)(F)CCC3CO)c3c2CCC3)cccc1-c1ccccc1` (stereo not shown) [Example 12, 5-(((4-((5,5-difluoro-2-(hydroxymethyl)piperidin-1-yl)methyl)-7-((2-methyl-[1,1′-biphenyl]-3-yl)methoxy)-2,3-dihydro-1H-inden-5-yl)oxy)methyl)nicotinonitrile], the IC50 was in the range of 100 to 500 nM.
The molecule `Cc1c(COc2cc(OCc3cc(C#N)c[n+]([O-])c3)c(CN3CCCC[C@H]3CO)c3c2CCC3)cccc1-c1ccccc1` [Example 45, (S)-3-cyano-5-(((4-((2-(hydroxymethyl)piperidin-1-yl)methyl)-7-((2-methyl-[1,1′-biphenyl]-3-yl)methoxy)-2,3-dihydro-1H-inden-5-yl)oxy)methyl)pyridine 1-oxide] yielded an IC50 of less than 100 nM.
On to `Cc1c(COc2cc(OCc3cncc(C#N)c3)c(CN3CCC3CO)c3c2CCC3)cccc1-c1cccc(O)c1` (stereo not shown) [Example 67, 5-(((7-((3′-hydroxy-2-methyl-[1,1′-biphenyl]-3-yl)methoxy)-4-((2-(hydroxymethyl)azetidin-1-yl)methyl)-2,3-dihydro-1H-inden-5-yl)oxy)methyl)nicotinonitrile], for which the IC50 is less than 100 nM.
In the case of `Cc1c(COc2cc(OCc3cncc(C#N)c3)c(CN3CCCCC3(CO)CO)c3c2CCC3)cccc1-c1ccccc1` [Example 22, 5-(((4-((2,2-bis(hydroxymethyl)piperidin-1-yl)methyl)-7-((2-methyl-[1,1′-biphenyl]-3-yl)methoxy)-2,3-dihydro-1H-inden-5-yl)oxy)methyl)nicotinonitrile 2,2,2-trifluoroacetate], the IC50 is less than 100 nM.
On to `CC(=O)NCC1CCCN1Cc1c(OCc2cncc(C#N)c2)cc(OCc2cccc(-c3ccccc3)c2C)c2c1CCC2` (stereo not shown) [Example 52, N-((1-((5-((5-cyanopyridin-3-yl)methoxy)-7-((2-methyl-[1,1′-biphenyl]-3-yl)methoxy)-2,3-dihydro-1H-inden-4-yl)methyl)pyrrolidin-2-yl)methyl)acetamide], for which the IC50 was less than 100 nM.
The same measure for `Cc1c(COc2cc(OCc3cncc(C#N)c3)c(CN3CCC3CO)c3c2CCC3)cccc1-c1cccc(F)c1` (stereo not shown) [Example 64, 5-(((7-((3′-fluoro-2-methyl-[1,1′-biphenyl]-3-yl)methoxy)-4-((2-(hydroxymethyl)azetidin-1-yl)methyl)-2,3-dihydro-1H-inden-5-yl)oxy)methyl)nicotinonitrile]: less than 100 nM.
Take `Cc1c(COc2cc(OCCCCF)c(CN3CC[C@H]3CO)c3c2CCC3)cccc1-c1ccccc1` [Example 33, (S)-(1-((5-(4-fluorobutoxy)-7-((2-methyl-[1,1′-biphenyl]-3-yl)methoxy)-2,3-dihydro-1H-inden-4-yl)methyl)azetidin-2-yl)methanol]: the IC50 lay within 100 to 500 nM.
The molecule `Cc1c(COc2cc(OCc3cncc(C#N)c3)c(CN3CCC3CO)c3c2CCC3)cccc1-c1ccccc1F` (stereo not shown) [Example 62, 5-(((7-((2′-fluoro-2-methyl-[1,1′-biphenyl]-3-yl)methoxy)-4-((2-(hydroxymethyl)azetidin-1-yl)methyl)-2,3-dihydro-1H-inden-5-yl)oxy)methyl)nicotinonitrile] yielded an IC50 of less than 100 nM.
In the case of `Cc1c(COc2cc(OCc3cncc(C#N)c3)c(CN3CCN(C)CC3CO)c3c2CCC3)cccc1-c1ccccc1` (stereo not shown) [Example 13, 5-(((4-((2-(hydroxymethyl)-4-methylpiperazin-1-yl)methyl)-7-((2-methyl-[1,1′-biphenyl]-3-yl)methoxy)-2,3-dihydro-1H-inden-5-yl)oxy)methyl)nicotinonitrile], the IC50 is less than 100 nM.
`Cc1c(COc2cc(OCc3cncc(C#N)c3)c(CN3CCCCCC3CO)c3c2CCC3)cccc1-c1ccccc1` (stereo not shown) [Example 20, 5-(((4-((2-(hydroxymethyl)azepan-1-yl)methyl)-7-((2-methyl-[1,1′-biphenyl]-3-yl)methoxy)-2,3-dihydro-1H-inden-5-yl)oxy)methyl)nicotinonitrile] returned an IC50 of less than 100 nM.
As to `Cc1c(COc2cc(Oc3ccccc3)c(CN3CCC3CO)c3c2CCC3)cccc1-c1ccccc1` (stereo not shown) [Example 78, (1-((7-((2-methyl-[1,1′-biphenyl]-3-yl)methoxy)-5-phenoxy-2,3-dihydro-1H-inden-4-yl)methyl)azetidin-2-yl)methanol], the IC50 is greater than 500 nM.
Turning to `Cc1ccc(F)c(-c2cccc(COc3cc(OCc4cncc(C#N)c4)c(CN4CCC4CO)c4c3CCC4)c2C)c1` (stereo not shown) [Example 56, 5-(((7-((2′-fluoro-2,5′-dimethyl-[1,1′-biphenyl]-3-yl)methoxy)-4-((2-(hydroxymethyl)azetidin-1-yl)methyl)-2,3-dihydro-1H-inden-5-yl)oxy)methyl)nicotinonitrile], the IC50 lay within 100 to 500 nM.
As for `Cc1c(COc2cc(OCc3cncc(C#N)c3)c(CN3CCC3CO)c3c2CCC3)cccc1-c1ccc(O)cc1` (stereo not shown) [Example 55, 5-(((7-((4′-hydroxy-2-methyl-[1,1′-biphenyl]-3-yl)methoxy)-4-((2-(hydroxymethyl)azetidin-1-yl)methyl)-2,3-dihydro-1H-inden-5-yl)oxy)methyl)nicotinonitrile], the IC50 was in the range of 100 to 500 nM.

Values taken from patent US20240246931A1, “COMPOUNDS AS PD1/PD-L1 INHIBITORS AND METHODS THEREOF” (JUBILANT PRODEL LLC, priority 2021, published 2024).
